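These data come from cells grown in 96-well plates and exposed to compound for 48 hours at five concentrations. The concentration for full growth arrest is given as TGI.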 Where only a bound is given, the exact number is not on record here.

Experimental findings from PubChem BioAssay (NCI) are described below.

Among the test systems are HOP-18 NSCLC; XF 498 CNS; M19-MEL melanoma; DMS 273 small cell lung; LXFL 529 NSCLC; SNB-78 CNS; DLD-1 colon; DMS 114 small cell lung; MCF7 breast; HS 578T breast; MDA-MB-435; NCI/ADR-RES ovarian; PC-3 prostate; BT-549 breast.
Assay in all cases: NCI anticancer screen, dose series, 48 h

As to `COc1ccc(OC)c(NC(=O)CCC/C(CC(=O)c2ccc(O)c(OC)c2)=N\Nc2ccc([N+](=O)[O-])cc2)c1`, the TGI with HOP-18 NSCLC, in the test with XF 498 CNS, in the test on M19-MEL melanoma, in the test on DMS 273 small cell lung, with LXFL 529 NSCLC and in the test with SNB-78 CNS was above 100 µM throughout. Moreover, the TGI with DLD-1 colon and in the test with DMS 114 small cell lung was above 100 µM each time.
Turning to `CN(C(=O)c1ccco1)C(=S)N1CCN(c2ccccc2)CC1`, the TGI with HOP-18 NSCLC, in the test with XF 498 CNS, in the test on M19-MEL melanoma, in the test with DMS 273 small cell lung, in the test on LXFL 529 NSCLC and with DLD-1 colon was above 100 µM each time. In addition, in the test on DMS 114 small cell lung, the TGI was above 100 µM.
Regarding `CCOC(=O)C(=Cc1cccnc1C)C(=O)OCC`, the TGI in the test on HOP-18 NSCLC is 21.7 µM; with XF 498 CNS, 25.6 µM; in the test with M19-MEL melanoma it was 22.3 µM; in the test on DMS 273 small cell lung it was 14 µM; in the test on LXFL 529 NSCLC, 20.2 µM; with DLD-1 colon, 47.4 µM. The compound also came in with a TGI with DMS 114 small cell lung of 31.3 µM.
As to `Cc1cccc(C(C)C)c1NC(=O)CC1C(=O)Nc2ccccc2S1(=O)=O` (configuration not stated), the TGI in the test with HOP-18 NSCLC is 70.8 µM; with XF 498 CNS, above 59.9 µM; in the test with M19-MEL melanoma it was above 57.4 µM; with DMS 273 small cell lung, 20.5 µM; in the test with LXFL 529 NSCLC it was 35.5 µM; with SNB-78 CNS it was above 79.3 µM. Further, the figures for the TGI in the test on DLD-1 colon and in the test on DMS 114 small cell lung were above 45.6 µM and 45.5 µM, respectively.
Take `O=C1CC(S(=O)(=O)O)C=C1Nc1cccc(Cl)c1` (configuration not stated): the TGI in the test on HOP-18 NSCLC, with XF 498 CNS, in the test with M19-MEL melanoma, in the test with DMS 273 small cell lung, with LXFL 529 NSCLC and in the test on SNB-78 CNS was above 100 µM each time. In addition, the TGI in the test with DLD-1 colon was above 100 µM.
For `N#CC(c1nc2ccccc2nc1Cl)S(=O)(=O)c1ccccc1` (configuration not stated), the TGI in the test on XF 498 CNS was above 100 µM; with M19-MEL melanoma, above 100 µM; in the test on DMS 273 small cell lung, above 100 µM; in the test with LXFL 529 NSCLC it was above 100 µM; in the test on SNB-78 CNS, 94.4 µM; in the test on DLD-1 colon, above 100 µM. The same compound yielded a TGI in the test on DMS 114 small cell lung above 100 µM.
In the case of `O=CN/C=C/c1ccc(O)c(O)c1`, the TGI with XF 498 CNS, in the test with M19-MEL melanoma, in the test on DMS 273 small cell lung, with LXFL 529 NSCLC, in the test with SNB-78 CNS and in the test with DLD-1 colon was above 100 µM throughout. The compound further gave a TGI in the test with DMS 114 small cell lung above 100 µM.
As for `O=CC1CCCc2ccccc21` (configuration not stated), the TGI in the test on HOP-18 NSCLC, with XF 498 CNS, with M19-MEL melanoma, in the test on DMS 273 small cell lung, with LXFL 529 NSCLC and with SNB-78 CNS was above 100 µM throughout. In addition, the TGI in the test with DLD-1 colon is above 63.8 µM; with DMS 114 small cell lung, above 71.4 µM.
For `Cc1ccc(N2C(=O)C3C=CC(n4[nH]c(=O)n(Cc5ccccc5)c4=O)CC3C2=O)cc1` (configuration not stated), the TGI in the test on HOP-18 NSCLC, in the test on XF 498 CNS, in the test on M19-MEL melanoma, in the test on DMS 273 small cell lung, with LXFL 529 NSCLC and in the test with SNB-78 CNS was above 100 µM throughout. Moreover, the TGI in the test with DLD-1 colon and in the test with DMS 114 small cell lung was above 100 µM in each case.
With `COC(=O)C1=CC2C(=O)OC1CC2C#N` (configuration not stated), the TGI in the test with HOP-18 NSCLC, with XF 498 CNS, with DMS 273 small cell lung, in the test with LXFL 529 NSCLC, in the test on SNB-78 CNS and in the test with DLD-1 colon was above 100 µM throughout. Also, the TGI in the test on DMS 114 small cell lung is above 100 µM.
In the case of `CCOC(=O)NC(=O)c1cn(CCN2CCN(c3ncnc4nc[nH]c34)CC2)c(=O)[nH]c1=O`, the TGI in the test on HOP-18 NSCLC, with XF 498 CNS, in the test with M19-MEL melanoma, in the test on LXFL 529 NSCLC, in the test with DLD-1 colon and in the test on DMS 114 small cell lung was above 100 µM each time.
In the case of `CN(/N=C/c1cccc2cccnc12)c1ccccc1`, the TGI in the test with HOP-18 NSCLC, with XF 498 CNS, in the test with M19-MEL melanoma, in the test on DMS 273 small cell lung, with LXFL 529 NSCLC and with SNB-78 CNS was above 100 µM throughout. For the same compound, the TGI with DLD-1 colon and with DMS 114 small cell lung was above 100 µM each time.
Turning to `Cc1[nH]c2ccccc2c1C1Cc2ccccc2N1C(=O)/C=C/C(=O)O` (configuration not stated), the TGI in the test on XF 498 CNS, with M19-MEL melanoma, in the test with DMS 273 small cell lung, in the test on LXFL 529 NSCLC, in the test with SNB-78 CNS and in the test on DLD-1 colon was above 100 µM each time. Also, the TGI in the test with DMS 114 small cell lung is above 100 µM.
As to `COC(=O)c1cc(Cl)ccc1NC(=O)c1ccc([N+](=O)[O-])cc1`, the TGI with XF 498 CNS was 35.9 µM; in the test with M19-MEL melanoma it was above 100 µM; in the test with DMS 273 small cell lung, 77.3 µM; with LXFL 529 NSCLC, above 100 µM; with SNB-78 CNS, above 100 µM; in the test with DLD-1 colon, above 100 µM. In addition, in the test with DMS 114 small cell lung, the TGI was above 100 µM.
Consider `CC1=C2C(=CC(C)(C)C2O)C(=O)C(C)(O)C12CC2` (configuration not stated), for which the TGI with HOP-18 NSCLC stood at 0.179 µM; with XF 498 CNS it was 0.0309 µM; with M19-MEL melanoma, 0.0861 µM; with DMS 273 small cell lung, 0.025 µM; in the test on LXFL 529 NSCLC, 0.114 µM; with SNB-78 CNS, 0.226 µM. Also, the TGI stood at 0.0447 µM with DLD-1 colon and 0.0281 µM with DMS 114 small cell lung.
Regarding `COc1c2c(nc3ccccc13)-c1cc3c(c(=O)n1C2)COC(=O)C3(O)CC(=O)N1CCOCC1` (configuration not stated), the TGI in the test with MCF7 breast is above 44.4 µM; in the test on HS 578T breast, above 88.8 µM; with MDA-MB-435, 76.9 µM; with NCI/ADR-RES ovarian, above 48.8 µM; in the test on PC-3 prostate, above 100 µM; in the test with HOP-18 NSCLC, above 79.2 µM. In addition, the TGI in the test on XF 498 CNS was 33.9 µM; with M19-MEL melanoma it was 44.8 µM; in the test with DMS 273 small cell lung, 12.4 µM; in the test with BT-549 breast, above 53.1 µM; in the test on LXFL 529 NSCLC, above 100 µM; in the test on SNB-78 CNS, above 97.1 µM. In addition, the TGI was above 100 µM with DLD-1 colon and 24.2 µM with DMS 114 small cell lung.
As to `COC(=O)CCC(NC(=S)N/N=C/c1ccco1)C(=O)OC` (configuration not stated), the TGI with HOP-18 NSCLC, in the test with XF 498 CNS, in the test with M19-MEL melanoma, in the test with DMS 273 small cell lung, in the test on LXFL 529 NSCLC and with SNB-78 CNS was above 100 µM each time. Also, the TGI in the test on DLD-1 colon and with DMS 114 small cell lung was above 100 µM each time.
As for `C[C@]12CCC3[C@@H](CC[C@@H]4c5nonc5CC[C@]34C)C1C/C(=N/O)C2=O` (some centres not stated), the TGI is above 100 µM with HOP-18 NSCLC; 40.4 µM with XF 498 CNS; above 100 µM with M19-MEL melanoma; above 100 µM in the test with DMS 273 small cell lung; above 100 µM in the test on LXFL 529 NSCLC; above 100 µM with SNB-78 CNS. In the test with DMS 114 small cell lung, this compound yielded a TGI above 100 µM.
Consider `Cc1ccc(C)c(NC(=O)CC/C(=N\NC(=O)c2c(O)ccc3ccccc23)C(C)C(=O)c2ccc(O)cc2)c1` (configuration not stated), for which the TGI in the test with HOP-18 NSCLC is 83.8 µM; in the test with XF 498 CNS, 91.9 µM; in the test on DMS 273 small cell lung, above 100 µM; in the test on LXFL 529 NSCLC, above 100 µM; in the test with SNB-78 CNS, above 100 µM; in the test on DLD-1 colon, above 100 µM.
For `O=S1(=O)OCCOS(=O)(=O)C1Cc1ccccc1`, the TGI in the test on HOP-18 NSCLC is 50 µM; with XF 498 CNS, above 100 µM; with M19-MEL melanoma, above 100 µM; in the test with DMS 273 small cell lung it was above 100 µM; in the test with SNB-78 CNS, above 100 µM; in the test on DLD-1 colon, above 100 µM. In the test with DMS 114 small cell lung, this compound came in with a TGI above 100 µM.
Turning to `O=C(c1ccccc1)c1cccc(C(=O)c2ccccc2)c1`, the TGI in the test with HOP-18 NSCLC, in the test with XF 498 CNS, with M19-MEL melanoma, in the test on DMS 273 small cell lung, in the test with LXFL 529 NSCLC and in the test with SNB-78 CNS was above 100 µM in each case. Further, the TGI in the test on DLD-1 colon and in the test with DMS 114 small cell lung was above 100 µM in each case.
Turning to `[N-]=[N+]=NC(CI)c1cn([C@H]2C[C@H](O)[C@@H](CO)O2)c(=O)[nH]c1=O` (some centres not stated), the TGI in the test on HOP-18 NSCLC, in the test with XF 498 CNS, in the test on M19-MEL melanoma, in the test with DMS 273 small cell lung, with LXFL 529 NSCLC and in the test with SNB-78 CNS was above 100 µM in each case. The TGI in the test with DLD-1 colon and in the test with DMS 114 small cell lung was above 100 µM throughout.
Take `CC(=O)C1C(=O)C(=O)N(c2ccccc2C(C)C)C1=O` (configuration not stated): the TGI in the test on HOP-18 NSCLC, in the test on XF 498 CNS, with M19-MEL melanoma, in the test with LXFL 529 NSCLC and in the test on SNB-78 CNS was above 100 µM throughout.
Consider `C/C(CC(=O)Nc1ccc(Cl)cc1)=N\NC(N)=S`, for which the TGI with XF 498 CNS, in the test on M19-MEL melanoma, in the test on DMS 273 small cell lung, in the test on LXFL 529 NSCLC, with SNB-78 CNS and with DLD-1 colon was above 100 µM each time. This compound had a TGI in the test with DMS 114 small cell lung above 100 µM.
Take `COc1ccc(/C=C\c2cc(OC)c(OC)c(OC)c2)cc1OC`: the TGI with MCF7 breast was above 100 µM; in the test on HS 578T breast it was 68 µM; in the test with NCI/ADR-RES ovarian it was above 100 µM; in the test on PC-3 prostate, above 100 µM; with HOP-18 NSCLC it was 40.4 µM; in the test on XF 498 CNS, 0.401 µM. Moreover, the TGI is above 100 µM with BT-549 breast, 3.14 µM in the test on LXFL 529 NSCLC, 40.4 µM with SNB-78 CNS and 40.4 µM with DLD-1 colon.
On to `COC(=O)C1=C(c2cc(OC)c(OC)c(OC)c2)OC(c2ccc(OC)c(OC)c2)C1` (configuration not stated), for which the TGI in the test with HOP-18 NSCLC, in the test on XF 498 CNS, with M19-MEL melanoma, in the test with DMS 273 small cell lung, in the test with LXFL 529 NSCLC and with DLD-1 colon was above 100 µM throughout. Further, the TGI in the test with DMS 114 small cell lung was found to be 81.3 µM.
